Test results taken from US20240190889A1, “NEW CYCLOPENTA-THIENO-DIAZEPINE DERIVATIVES AS GABA A GAMMA1 POSITIVE ALLOSTERIC MODULATORS” (Hoffmann-La Roche Inc., priority 2021, published 2024).
Like-named read-outs stand apart in the source and are kept apart here.

What was measured:
[1] = molecular target: h-GABA-A α2β2γ1 receptor expressed in Xenopus laevis oocytes (Homo sapiens (Human), UniProt P47869+Q8N1C3); assay: Two-electrode voltage clamp electrophysiology in Xenopus oocytes expressing GABAA receptors; assay type: cell-based; details: for Efficacy (GABA)%: % modulation of GABA EC20 = 100*(Fold increase-1), compound at 30-fold Ki α2β2γ1; for Fold increase h-GABA-A α2β2γ1 oocyte @ 30-fold Ki: GABA EC20, test compound at approx. 30-fold its Ki α2β2γ1, at least 3 oocytes
From the text: Functional Expression of GABAA Receptors:
Xenopus Oocytes Preparation
Xenopus laevis oocytes at maturation stages V-VI were used for the expression of cloned mRNA encoding GABAA receptor subunits. Oocytes ready for RNA micro-injection were bought from Ecocyte, Castrop-Rauxel, Germany and stored in modified Barth's medium (composition in mM: NaCl 88, KCl 1, NaHCO3 2.4, HEPES 10, MgSO4 0.82, CaNO3 0.33, CaCl2 0.33, pH=7.5) at 20 C. until the experiment.
Xenopus Oocytes Microinjection
Oocytes were plated in 96-well plates for microinjection using the Roboinject automated instrument (MultiChannelSystems, Reutlingen, Germany). Approximately 50 nL of an aqueous solution containing the RNA transcripts for the subunits of the desired GABAA receptor subtype was injected into each oocyte. […] Oocytes were kept in modified Barth's medium (composition in mM: NaCl 88, KCl 1, NaHCO3 […], HEPES 10, MgSO4 0.82, CaNO3 0.33, CaCl2 0.33, pH=7.5) at 20° C. until the experiment.
Electrophysiological experiments were performed using the Roboocyte instrument (MultiChannelSystems, Reutlingen, Germany) on days 3 to 5 after the micro-injection of mRNA. During the experiment the oocytes were constantly superfused by a solution containing (in mM) NaCl 90, KCl 1, HEPES 5, MgCl: 1, CaCl, 1 (pH 7.4). Oocytes were impaled by two glass microelectrodes (resistance: 0.5-0.8 MS2) which were filled with a solution containing KCl 1M +K-acetate 1.5 M and voltage-clamped to −80 mV. The recordings were performed at room temperature using the Roboocyte two-electrode voltage clamp system (Multichannelsystem). After an initial equilibration period of 1.5 min GABA was added for 1.5 min at a concentration evoking approximately 20% of a maximal current response (EC20). After another rest interval of 2.5 min GABA was again added evoking a response of similar amplitude and shape. […] Current traces were recorded at a digitization rate of 10 Hz during and shortly before and after the GABA application.
Each compound and concentration was tested on at least 3 oocytes. Different oocytes were used for different compound concentrations.
For the analysis, the digitized current traces of the first and second GABA response were superimposed and, if necessary, rescaled to equal maximal amplitudes. The ratio between the two responses during the time interval of test compound application was calculated point by point. The extremum of the resulting “ratio trace” was taken as the efficacy (“Fold increase”) of the compound expressed as “% modulation of GABA EC” (100* (Fold increase-1)).

[2] = molecular target: human GABAA α1β3γ2 receptor (Homo sapiens (Human), UniProt P14867+P18507); assay: Radioligand binding assay, competition for [3H]Flumazenil, γ2-containing GABAA subtypes; details: for γ2/γ1 Selectivity Ratio: Ki α1β3γ2 (nM)/Ki α2β2γ1 (nM); for LogSel: Log[Ki α1β3γ2 (nM)/Ki α2β2γ1 (nM)]
Description: Membrane Preparation and Binding Assay for γ2-containing GABAA Subtypes
The affinity of compounds at GABAA γ2 subunit-containing receptors was measured by competition for [^3H]Flumazenil (81.1 Ci/mmol; Roche) binding to HEK293F cells expressing human (transiently transfected) receptors of composition α1β3γ2.
Harvested pellets from HEK293F cells expressing the different GABAA γ2 receptor subtypes were resuspended in Mannitol Buffer pH 7,2-7,4 and processed as described above for the cells expressing the GABAA γ1 subunit-containing receptors.
Assays were incubated to equilibrium for 1 hour at 4° C, and harvested onto GF/C uni-filters (Packard) by filtration using a Packard harvester and washing with ice-cold wash buffer (50 mM Tris; pH 7.5). After anhydrousing, filter-retained radioactivity was detected by liquid scintillation counting. Ki values were calculated using Excel-Fit (Microsoft) and are the means of two determinations.

[3] = HEK293F cell membranes, [3H]Flumazenil 1 nM, mean of two determinations, read-out: Ki h-GABAA α1β3γ2

Question: Which results are given for `C[C@@H]1N=C(c2c(F)cccc2F)c2c(sc3c2C[C@@H](C(F)F)C3)-n2nc(C(=O)NCCO)nc21` [Example 18, (7S,13R)-13-(difluoromethyl)-9-(2,6-difluorophenyl)-N-(2-hydroxyethyl)-7-methyl-16-thia-2,3,5,8-tetrazatetracyclo [8.6.0.02,6.011,15]hexadeca-1(10),3,5,8,11(15)-pentaene-4-carboxamide]?
Answer: Efficacy (GABA)% [1]: 65%; Fold increase h-GABA-A α2β2γ1 oocyte @ 30-fold Ki [1]: 1.65; Ki [2, 3]: 614 nM; γ2/γ1 Selectivity Ratio [2]: 107.2; LogSel [2]: 2.03

Question: What does the source list for `Cc1nnc2n1-c1sc3c(c1C(c1c(F)cccc1Cl)=N[C@H]2C)C[C@@H](C(F)F)C3` [Example 9, (7S,13R)-9-(2-chloro-6-fluoro-phenyl)-13-(difluoromethyl)-3,7-dimethyl-16-thia-2,4,5,8-tetrazatetracyclo [8.6.0.02,6.011,15]hexadeca-1(10),3,5,8,11(15)-pentaene]?
Answer: Efficacy (GABA)% [1]: 38%; Fold increase h-GABA-A α2β2γ1 oocyte @ 30-fold Ki [1]: 1.38; Ki [2]: 366 nM; γ2/γ1 Selectivity Ratio [2]: 101.3; LogSel [2]: 2.01

Question: How did the “Efficacy (GABA)%” value [1] turn out when `C[C@@H]1N=C(c2c(F)cccc2F)c2c(sc3c2C[C@@H](C(F)F)C3)-n2c(CO)cnc21` [Example 21, [(7S,13R)-13-(difluoromethyl)-9-(2,6-difluorophenyl)-7-methyl-16-thia-2,5,8-triazatetracyclo [8.6.0.02,6.011,15]hexadeca-1(10),3,5,8,11(15)-pentaen-3-yl]methanol] was run?
Answer: 68%

Question: What about the “Fold increase h-GABA-A α2β2γ1 oocyte @ 30-fold Ki” value [1] of the same compound?
Answer: 1.68

Question: And the Ki [2]?
Answer: 606 nM

Question: And the “γ2/γ1 Selectivity Ratio” value [2]?
Answer: 127.6

Question: And the LogSel [2]?
Answer: 2.11

Question: For `Fc1cccc(F)c1C1=NCc2nnc(C3CC3)n2-c2sc3c(c21)C[C@@H](C(F)F)C3` [Example 7, (13R)-3-cyclopropyl-13-(difluoromethyl)-9-(2,6-difluorophenyl)-16-thia-2,4,5,8-tetrazatetracyclo [8.6.0.02,6.011,15]hexadeca-1(10),3,5,8,11(15)-pentaene], which “Efficacy (GABA)%” value [1] is on record?
Answer: 71%

Question: And the “Fold increase h-GABA-A α2β2γ1 oocyte @ 30-fold Ki” value [1]?
Answer: 1.71

Question: What about the Ki [2] of the same compound?
Answer: 304 nM

Question: And the “γ2/γ1 Selectivity Ratio” value [2]?
Answer: 47.3

Question: And the LogSel [2]?
Answer: 1.67

Question: `Cc1nnc2n1-c1sc3c(c1C(c1c(F)cccc1F)=NC2)C[C@@H](C)C3` [Example 14, (13R)-9-(2,6-difluorophenyl)-3,13-dimethyl-16-thia-2,4,5,8-tetrazatetracyclo [8.6.0.02,6.011,15]hexadeca-1(10),3,5,8,11(15)-pentaene] was tested. Which “Efficacy (GABA)%” value [1] did it give?
Answer: 68%

Question: What about the “Fold increase h-GABA-A α2β2γ1 oocyte @ 30-fold Ki” value [1] of the same compound?
Answer: 1.68

Question: And the Ki [2]?
Answer: 101 nM

Question: And the “γ2/γ1 Selectivity Ratio” value [2]?
Answer: 36.2

Question: What about the LogSel [2] of the same compound?
Answer: 1.56

Question: Which “Efficacy (GABA)%” value [1] does the source give for `Cc1nnc2n1-c1sc3c(c1C(c1c(F)cccc1F)=N[C@H]2C)C[C@@H](C)C3` [Example 15, (7S,13R)-9-(2,6-difluorophenyl)-3,7,13-trimethyl-16-thia-2,4,5,8-tetrazatetracyclo [8.6.0.02,6.011,15]hexadeca-1(10),3,5,8,11(15)-pentaene] here?
Answer: 45%

Question: And the “Fold increase h-GABA-A α2β2γ1 oocyte @ 30-fold Ki” value [1]?
Answer: 1.45

Question: What about the Ki [2] of the same compound?
Answer: 101 nM

Question: And the “γ2/γ1 Selectivity Ratio” value [2]?
Answer: 16.1

Question: What about the LogSel [2] of the same compound?
Answer: 1.21

Question: Which results are given for `Cc1nnc2n1-c1sc3c(c1C(c1c(F)cccc1F)=N[C@H]2C)C[C@@H](C(F)(F)F)C3` [Example 13, (7S,13R)-9-(2,6-difluorophenyl)-3,7-dimethyl-13-(trifluoromethyl)-16-thia-2,4,5,8-tetrazatetracyclo [8.6.0.02,6.011,15]hexadeca-1(10),3,5,8,11(15)-pentaene]?
Answer: Efficacy (GABA)% [1]: 51%; Fold increase h-GABA-A α2β2γ1 oocyte @ 30-fold Ki [1]: 1.51; Ki [2]: 705 nM; γ2/γ1 Selectivity Ratio [2]: 43.5; LogSel [2]: 1.64

Question: `Cc1nc2n(n1)-c1sc3c(c1C(c1c(F)cccc1F)=N[C@H]2C)C[C@H](C(F)F)C3` [Example 17, (7S,13S)-13-(difluoromethyl)-9-(2,6-difluorophenyl)-4,7-dimethyl-16-thia-2,3,5,8-tetrazatetracyclo [8.6.0.02,6.011,15]hexadeca-1(10),3,5,8,11(15)-pentaene] was tested. Which “Efficacy (GABA)%” value [1] did it give?
Answer: 25%

Question: And the “Fold increase h-GABA-A α2β2γ1 oocyte @ 30-fold Ki” value [1]?
Answer: 1.25

Question: What about the Ki [2] of the same compound?
Answer: 6640 nM

Question: What about the “γ2/γ1 Selectivity Ratio” value [2] of the same compound?
Answer: 114.8

Question: And the LogSel [2]?
Answer: 2.06

Question: For `Cc1nc2n(n1)-c1sc3c(c1C(c1c(F)cccc1F)=N[C@H]2C)C[C@@H](C(F)F)C3` [Example 16, (7S,13R)-13-(difluoromethyl)-9-(2,6-difluorophenyl)-4,7-dimethyl-16-thia-2,3,5,8-tetrazatetracyclo [8.6.0.02,6.011,15]hexadeca-1(10),3,5,8,11(15)-pentaene], which “Efficacy (GABA)%” value [1] is on record?
Answer: 32%

Question: What about the “Fold increase h-GABA-A α2β2γ1 oocyte @ 30-fold Ki” value [1] of the same compound?
Answer: 1.32

Question: What about the Ki [2] of the same compound?
Answer: 448 nM

Question: And the “γ2/γ1 Selectivity Ratio” value [2]?
Answer: 191.1

Question: What about the LogSel [2] of the same compound?
Answer: 2.28

Question: Which “Efficacy (GABA)%” value [1] does the source give for `Cc1nnc2n1-c1sc3c(c1C(c1c(F)cccc1Cl)=NC2)C[C@@H](C(F)F)C3` [Example 4, (13R)-9-(2-chloro-6-fluoro-phenyl)-13-(difluoromethyl)-3-methyl-16-thia-2,4,5,8-tetrazatetracyclo [8.6.0.02,6.011,15]hexadeca-1(10),3,5,8,11(15)-pentaene] here?
Answer: 51%

Question: What about the “Fold increase h-GABA-A α2β2γ1 oocyte @ 30-fold Ki” value [1] of the same compound?
Answer: 1.51

Question: And the Ki [2]?
Answer: 343 nM

Question: What about the “γ2/γ1 Selectivity Ratio” value [2] of the same compound?
Answer: 74.8

Question: And the LogSel [2]?
Answer: 1.87

Question: Which results are given for `Fc1cccc(Cl)c1C1=NCc2nnc(C3CC3)n2-c2sc3c(c21)C[C@@H](C(F)F)C3` [Example 6, (13R)-9-(2-chloro-6-fluoro-phenyl)-3-cyclopropyl-13-(difluoromethyl)-16-thia-2,4,5,8-tetrazatetracyclo [8.6.0.02,6.011,15]hexadeca-1(10),3,5,8,11(15)-pentaene]?
Answer: Efficacy (GABA)% [1]: 85%; Fold increase h-GABA-A α2β2γ1 oocyte @ 30-fold Ki [1]: 1.85; Ki [2]: 647 nM; γ2/γ1 Selectivity Ratio [2]: 97.7; LogSel [2]: 1.99

Question: What does the source list for `Fc1cccc(F)c1C1=NCc2nnc(-c3cccnn3)n2-c2sc3c(c21)C[C@@H](C(F)F)C3` [Example 10, (13R)-13-(difluoromethyl)-9-(2,6-difluorophenyl)-3-pyridazin-3-yl-16-thia-2,4,5,8-tetrazatetracyclo [8.6.0.02,6.011,15]hexadeca-1(10),3,5,8,11(15)-pentaene]?
Answer: Efficacy (GABA)% [1]: 47%; Fold increase h-GABA-A α2β2γ1 oocyte @ 30-fold Ki [1]: 1.47; Ki [2]: 3220 nM; γ2/γ1 Selectivity Ratio [2]: 1090.8; LogSel [2]: 3.04

Question: What does the source list for `Cc1cnc2n1-c1sc3c(c1C(c1c(F)cccc1F)=N[C@H]2C)C[C@@H](C(F)F)C3` [Example 20, (7S,13R)-13-(difluoromethyl)-9-(2,6-difluorophenyl)-3,7-dimethyl-16-thia-2,5,8-triazatetracyclo [8.6.0.02,6.011,15]hexadeca-1(10),3,5,8,11(15)-pentaene]?
Answer: Efficacy (GABA)% [1]: 70%; Fold increase h-GABA-A α2β2γ1 oocyte @ 30-fold Ki [1]: 1.70; Ki [2]: 191 nM; γ2/γ1 Selectivity Ratio [2]: 53.4; LogSel [2]: 1.73

Question: How did the “Efficacy (GABA)%” value [1] turn out when `C[C@@H]1N=C(c2c(F)cccc2F)c2c(sc3c2C[C@@H](C(F)F)C3)-n2nc(C(=O)N3CCS(=O)(=O)CC3)nc21` [Example 19, [(7S,13R)-13-(difluoromethyl)-9-(2,6-difluorophenyl)-7-methyl-16-thia-2,3,5,8-tetrazatetracyclo [8.6.0.02,6.011,15]hexadeca-1(10),3,5,8,11(15)-pentaen-4-yl]-(1,1-dioxo-1,4-thiazinan-4-yl)methanone] was run?
Answer: 43%

Question: And the “Fold increase h-GABA-A α2β2γ1 oocyte @ 30-fold Ki” value [1]?
Answer: 1.43

Question: And the Ki [2, 3]?
Answer: 873 nM

Question: And the “γ2/γ1 Selectivity Ratio” value [2]?
Answer: 162.3

Question: What about the LogSel [2] of the same compound?
Answer: 2.21
